Values after ≈ are worked out from the molar mass of the structure shown.
Experiments:
[1] = test system: C-32 (human amelanotic melanoma); assay: Cytotoxic activity, WST-1 assay; format: cell-based; conditions: C-32, 72 h, Neg = negative in the concentration used
[2] = test system: MCF-7 (human adenocarcinoma); assay: Cytotoxic activity, WST-1 assay; format: cell-based; conditions: MCF-7, 72 h, Neg = negative in the concentration used
SNB-19 (glioblastoma) = assay: Cytotoxic activity, WST-1 assay; format: cell-based, human; conditions: SNB-19, 72 h, Neg = negative in the concentration used
[3] = test system: T47D (human ductal carcinoma); assay: Cytotoxic activity, WST-1 assay; format: cell-based; conditions: for IC50 / IC50 ± SD: 72 h, Neg = negative in the concentration used; for potency relative to cisplatin: ratio of IC50 values
[4] = test system: Colo-829 (human malignant melanoma); assay: Cytotoxic activity, WST-1 assay; format: cell-based; conditions: Colo-829, 72 h, Neg = negative in the concentration used
[5] = test system: SKOV-3 human ovarian cancer cell line; assay: Inhibition of tumor cell proliferation (MTT); conditions: SK-OV-3, 96 h, read-out: Max. Inhibition (% of Control)
Experimental: Antiproliferative activities of the compounds were measured by the MTT assay using A549 cells and a human ovarian cancer cell line SKOV-3 (adenocarcinoma ATCC® HTB77™). A total of 2 × 10^3 cells in DMEM medium supplemented with 5% FBS were placed in each well of a 96-well flat-bottom plate. After 24 h of incubation at 37 °C in 5% CO2, the growth medium was replaced by media containing different concentrations of the derivatives. Control cultures received cisplatin 0.1–10 μg/mL, and blank wells contained 100 μL of growth medium with no cells. After 96 h of incubation, cell proliferation was determined by the colorimetric MTT assay (570 nm) reading for each concentration compared with the control. At least three replicates for each sample were used to determine the cell proliferation.

[6] = test system: cytopathogenic bovine orphan virus (ECBO) strain LCR-4; assay: Time of addition assay (post-adsorption), CPE/MTT in A549 cells; format: cell-based, cytopathogenic bovine orphan virus (BEV-1); conditions: for EC50: A549; for SI: selectivity index, ratio of CC50 to EC50, ECBO in A549 cells
in vitro = conditions: human
Experimental: The cytotoxic effect of compounds on A549 cells was determined by the MTT method, as previously described [36]. The MTT assay is the enzyme-based method, which use the 3-(4,5-dimethylthiazol-2-yl)-2,5-diphenyltetrazolium bromide as a reductive coloring agent. Briefly, subconfluent monolayers of A549 cells (2 × 10^4 cell/well in Dulbecco’s Minimal Essential Medium (DMEM) supplemented with 5% fetal bovine serum (FBS), antibiotics (100 U/mL penicillin and 100 μg/mL streptomycin), and 2 mM L-glutamine (all from Sigma Aldrich, St. Louis, MO, USA) were incubated in 96-multi-well plates in the presence of dilutions of the compounds ranging from 100 μg/mL to 0.5 μg/mL, in triplicate for 48 h at 37 °C in a humidified atmosphere with 5% CO2. After 48 h, 20 μL of MTT solution (Promega, Madison, WI, USA) was added to each well, and the microplates were kept at 37 °C/5% CO2 for 3 h. Then, the solubilization/stop solution containing SDS-HCl (100 μL/well) was added, and the absorbance values of the wells were measured at 570 nm using a 96-well plate reader (Multiskan RC spectrophotometer, Thermo Labsystems, Waltham, MA, USA). Cell viability (%) was calculated for each concentration as Abs treated/Abs control × 100, where Abs treated and Abs control are the absorbance readings for the wells with and without the tested compounds, respectively. The 50% cytotoxic concentration (CC50) was defined as the concentration that reduced cell viability by 50% with respect to controls without drugs. The CC50 value was calculated from the corresponding dose–response curves.

SMILES | IC50 ± SD [1] | melting point | IC50 ([2]; Homo sapiens, MCF7) | IC50 (SNB-19 (glioblastoma); Homo sapiens) | IC50 ([3]; Homo sapiens) | IC50 ([4]; Homo sapiens) | IC50 ± SD [2] | also measured
N.N.[Cl][Pt][Cl] [Cisplatin, reference compound] |  |  |  |  |  |  |  | IC50 [1]: 12.3 ± 2.1 µM; IC50 [2]: 5.5 ± 1 µM; IC50 (SNB-19 (glioblastoma)): 2.3 ± 0.05 µM; IC50 [3]: 24.9 ± 1.1 µM; IC50 [4]: 16.8 ± 1.7 µM
C=C(C)C1CC[C@]2(COC(=O)c3cn(Cc4ccccc4)nn3)CC[C@]3(C)C(CCC4[C@@]5(C)CC[C@H](O)C(C)(C)C5CC[C@]43C)C12 (stereo partly drawn) [Compound 5a, 28-O-(1-Benzyl-1H-1,2,3-triazol-4-yl)carbonylbetulin] | Neg | 169 to 171 °C | 58.8 ± 1.5 µM | 96.2 ± 1.2 µM | 10.5 ± 0.09 µM | 78.5 ± 8.3 µM |  | inhibition at 25 µg/mL [5]: 40%
C=C(C)C1CC[C@]2(COC(=O)c3cn(Cc4ccc(F)cc4)nn3)CC[C@]3(C)C(CCC4[C@@]5(C)CC[C@H](O)C(C)(C)C5CC[C@]43C)C12 (stereo partly drawn) [Compound 5b, 28-O-[1-(4-Fluorobenzyl)-1H-1,2,3-triazol-4-yl]carbonylbetulin] | Neg | 144 to 147 °C |  | 66.1 ± 0.7 µM | 8.5 ± 0.02 µM | 129 ± 7.7 µM | Neg | inhibition at 10 µg/mL [5]: 40%
C=C(C)C1CC[C@]2(COC(=O)c3cn(Cc4ccc(C#N)cc4)nn3)CC[C@]3(C)C(CCC4[C@@]5(C)CC[C@H](O)C(C)(C)C5CC[C@]43C)C12 (stereo partly drawn) [Compound 5c, 28-O-[1-(4-Cyanobenzyl)-1H-1,2,3-triazol-4-yl]carbonylbetulin] | Neg | 225 to 228 °C |  | 0.7 ± 0.08 µM | 1.4 ± 0.01 µM | 9.7 ± 0.1 µM | Neg | 
C=C(C)C1CC[C@]2(COC(=O)c3cn(CSc4ccccc4)nn3)CC[C@]3(C)C(CCC4[C@@]5(C)CC[C@H](O)C(C)(C)C5CC[C@]43C)C12 (stereo partly drawn) [Compound 5d, 28-O-(1-Phenylthiomethyl-1H-1,2,3-triazol-4-yl)carbonylbetulin] | Neg | 143 to 146 °C |  | 13 ± 0.09 µM | 52.5 ± 1.4 µM | 100 ± 5.5 µM | Neg | inhibition at 10 µg/mL [5]: 40%
C=C(C)C1CC[C@]2(COC(=O)c3cn(CC(=O)OCC)nn3)CC[C@]3(C)C(CCC4[C@@]5(C)CC[C@H](O)C(C)(C)C5CC[C@]43C)C12 (stereo partly drawn) [Compound 5g, 28-O-(1-Ethylacetyl-1H-1,2,3-triazol-4-yl)carbonylbetulin] | Neg | 176 to 181 °C |  | 92.3 ± 0.9 µM | 135 ± 2.6 µM | 11.4 ± 0.2 µM | Neg | 
C=C(C)C1CC[C@]2(COC(=O)c3cn(CCCO)nn3)CC[C@]3(C)C(CCC4[C@@]5(C)CC[C@H](O)C(C)(C)C5CC[C@]43C)C12 (stereo partly drawn) [Compound 5h, 28-O-[1-(3-Hydroxypropyl)-1H-1,2,3-triazol-4-yl]carbonylbetulin] |  |  | 15.5 ± 1.1 µM | 9.9 ± 0.7 µM | 1.3 ± 0.05 µM | 6.2 ± 0.6 µM |  | EC50 [6]: 0.5 µg/mL (≈ 0.839 µM); SI [6]: 55.5; IC50 ([1]; Homo sapiens): 80.3 ± 5.8 µM; CC50 at 48 h (in vitro): 27.7 µg/mL (≈ 46.5 µM); potency relative to cisplatin [3]: 19 fold
C=C(C)C1CC[C@]2(COC(=O)c3cn(CCCN)nn3)CC[C@]3(C)C(CCC4[C@@]5(C)CC[C@H](O)C(C)(C)C5CC[C@]43C)C12 (stereo partly drawn) [Compound 5i, 28-O-[1-(3-Aminopropyl)-1H-1,2,3-triazol-4-yl]carbonylbetulin] |  | 156 to 160 °C | 6.94 ± 0.8 µM | 0.9 ± 0.03 µM | 3.63 ± 0.3 µM | 0.6 ± 0.13 µM |  | IC50 ([1]; Homo sapiens): 7.9 ± 0.9 µM
C=C(C)C1CC[C@]2(COC(=O)c3cn(C(C(=O)O)C(C)C)nn3)CC[C@]3(C)C(CCC4[C@@]5(C)CC[C@H](O)C(C)(C)C5CC[C@]43C)C12 (stereo partly drawn) [Compound 5k] |  | 293 to 297 °C | 37.2 ± 0.7 µM | 6.3 ± 0.9 µM | 7.2 ± 0.2 µM | 8.7 ± 0.5 µM |  | IC50 ([1]; Homo sapiens): 46.9 ± 2.5 µM
C=C(C)C1CC[C@]2(COC(=O)c3cn(Cc4ccccc4)nn3)CC[C@]3(C)C(CCC4[C@@]5(C)CC[C@H](OC(=O)c6cn(Cc7ccccc7)nn6)C(C)(C)C5CC[C@]43C)C12 (stereo partly drawn) [Compound 6a, 3,28-O,O’-Di[(1-benzyl-1H-1,2,3-triazol-4-yl)carbonyl]betulin] | Neg | 117 to 120 °C |  | 24.4 ± 1.3 µM |  | 80.7 ± 1.8 µM | Neg | IC50 ± SD [3]: Neg
C=C(C)C1CC[C@]2(COC(=O)c3cn(Cc4ccc(F)cc4)nn3)CC[C@]3(C)C(CCC4[C@@]5(C)CC[C@H](OC(=O)c6cn(Cc7ccc(F)cc7)nn6)C(C)(C)C5CC[C@]43C)C12 (stereo partly drawn) [Compound 6b, 3,28-O,O’-Di[1-(4-fluorobenzyl-1H-1,2,3-triazol-4-yl)carbonyl]betulin] | Neg | 155 to 158 °C | 0.09 ± 0.01 µM | 0.08 ± 0.01 µM | 0.05 ± 0.01 µM |  |  | potency relative to cisplatin [3]: 500 fold; IC50 ± SD [4]: Neg
C=C(C)C1CC[C@]2(COC(=O)c3cn(Cc4ccc(C#N)cc4)nn3)CC[C@]3(C)C(CCC4[C@@]5(C)CC[C@H](OC(=O)c6cn(Cc7ccc(C#N)cc7)nn6)C(C)(C)C5CC[C@]43C)C12 (stereo partly drawn) [Compound 6c, 3,28-O,O’-Di[1-(4-cyanobenzyl-1H-1,2,3-triazol-4-yl)carbonyl]betulin] | Neg |  | 60.7 ± 0.6 µM | 0.06 ± 0.01 µM | 1.1 ± 0.01 µM |  |  | IC50 ± SD [4]: Neg
C=C(C)C1CC[C@]2(COC(=O)c3cn(CSc4ccccc4)nn3)CC[C@]3(C)C(CCC4[C@@]5(C)CC[C@H](OC(=O)c6cn(CSc7ccccc7)nn6)C(C)(C)C5CC[C@]43C)C12 (stereo partly drawn) [Compound 6d, 3,28-O,O’-Di[(1-phenylthiomethyl-1H-1,2,3-triazol-4-yl)carbonyl]betulin] |  | 127 to 131 °C | 0.9 ± 0.08 µM | 0.5 ± 0.02 µM | 0.9 ± 0.05 µM | 103 ± 4.7 µM |  | IC50 ([1]; Homo sapiens): 100 ± 2.8 µM
C=C(C)C1CCC2(COC(=O)c3cn(C4CC(n5cc(C)c(=O)[nH]c5=O)OC4CO)nn3)CCC3(C)C(CCC4C5(C)CCC(OC(=O)c6cn(C7CC(n8cc(C)c(=O)[nH]c8=O)OC7CO)nn6)C(C)(C)C5CCC43C)C12 (stereo not drawn) [Compound 6e, 3,28-O,O’-Di[1-(3′-deoxythymidine-5′-yl-1H-1,2,3-triazol-4-yl)carbonyl]betulin] | total decay of cytotoxic effect and Neg | 224 to 227 °C |  |  |  |  | total decay of cytotoxic effect and Neg | IC50 ± SD (SNB-19 (glioblastoma)): total decay of cytotoxic effect and Neg; IC50 ± SD [3]: total decay of cytotoxic effect and Neg; IC50 ± SD [4]: total decay of cytotoxic effect and Neg
C=C(C)C1CCC2(COC(=O)c3cn(C4OC(CO)C(O)C(O)C4O)nn3)CCC3(C)C(CCC4C5(C)CCC(OC(=O)c6cn(C7OC(CO)C(O)C(O)C7O)nn6)C(C)(C)C5CCC43C)C12 [Compound 6f, 3,28-O,O’-Di[1-(1-deoxy-β-D-glucopyranosyl-1H-1,2,3-triazol-4-yl)carbonyl]betulin] | total decay of cytotoxic effect and Neg |  |  |  |  |  | total decay of cytotoxic effect and Neg | EC50 [6]: 5 µg/mL (≈ 5.22 µM); SI [6]: 20.0; CC50 at 48 h (in vitro): 100 µg/mL (≈ 104 µM); IC50 ± SD (SNB-19 (glioblastoma)): total decay of cytotoxic effect and Neg; IC50 ± SD [3]: total decay of cytotoxic effect and Neg; IC50 ± SD [4]: total decay of cytotoxic effect and Neg
C=C(C)C1CC[C@]2(COC(=O)c3cn(CC(=O)OCC)nn3)CC[C@]3(C)C(CCC4[C@@]5(C)CC[C@H](OC(=O)c6cn(CC(=O)OCC)nn6)C(C)(C)C5CC[C@]43C)C12 (stereo partly drawn) [Compound 6g, 3,28-O,O’-Di-[(1-ethylacetyl-1H-1,2,3-triazol-4-yl)carbonyl]betulin] | Neg |  |  |  |  | 97.6 ± 3.3 µM | Neg | IC50 ± SD (SNB-19 (glioblastoma)): Neg; IC50 ± SD [3]: Neg
